Laboratory results: PubChem BioAssay AID212 (DTP/NCI, 2004)
Several values for one entry are separate records, joined by “and”; a condition that tells them apart may be missing. Identical values can stand only once. Records with an inconclusive call do not appear.

System: BDF1 mice, colon carcinoma 38 sc, T/C %
Assay: NCI In Vivo Anticancer Drug Screen. Data for tumor model Colon Carcinoma 38 (subcutaneous) in B6D2F1 (BDF1) mice
Conditions: endpoint: median tumor weight (est.), higher = larger tumour
Outline: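 Compound antitumor activity was assessed in mice carrying transplantable tumors. Survival or tumor size was recorded, and each value is the treated-group measurement divided by that of the vehicle-treated control group.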

[1] = dose: 12.5 mg/kg/injection, schedule: Q07DX002 (ip), vehicle: saline with Tween-80
[2] = dose: 25.0 mg/kg/injection, schedule: Q07DX002 (ip), vehicle: saline with Tween-80
[3] = dose: 12.5 mg/kg/injection, schedule: Q07DX002 (ip), vehicle: Klucel (hydroxypropylcellulose) (HPC)
[4] = dose: 50.0 mg/kg/injection, schedule: Q07DX002 (ip), vehicle: Klucel (hydroxypropylcellulose) (HPC)
[5] = dose: 100.0 mg/kg/injection, schedule: Q07DX002 (ip), vehicle: Klucel (hydroxypropylcellulose) (HPC)
[6] = dose: 200.0 mg/kg/injection, schedule: Q07DX002 (ip), vehicle: Klucel (hydroxypropylcellulose) (HPC)
[7] = dose: 50.0 mg/kg/injection, schedule: Q07DX002 (ip), vehicle: saline with Tween-80
[8] = dose: 200.0 mg/kg/injection, schedule: Q07DX002 (ip), vehicle: saline with Tween-80
[9] = dose: 400.0 mg/kg/injection, schedule: Q07DX002 (ip), vehicle: Klucel (hydroxypropylcellulose) (HPC)
[10] = dose: 25.0 mg/kg/injection, schedule: Q07DX002 (ip), vehicle: Klucel (hydroxypropylcellulose) (HPC)
[11] = dose: 100.0 mg/kg/injection, schedule: Q07DX002 (ip), vehicle: saline with Tween-80
[12] = dose: 25.0 mg/kg/injection, schedule: Q07DX002 (ip), vehicle: saline

In the case of `O/N=C/c1ccccc1O.O/N=C/c1ccccc1O.[Cu]`, the T/C (dose: 3.12 mg/kg/injection, schedule: Q07DX002 (ip), vehicle: saline with Tween-80) is reported as 89 % of control and 100 % of control, the T/C (dose: 6.25 mg/kg/injection, schedule: Q07DX002 (ip), vehicle: saline with Tween-80) is reported as 92 % of control and 100 % of control and the T/C [1] is reported as 102 % of control and 108 % of control. For the same molecule, the T/C [2] was 87 % of control and 104 % of control.

With `CNC(=O)OCc1c(COC(=O)NC)c(C)n(-c2ccc(OC)cc2)c1C` the T/C (dose: 6.25 mg/kg/injection, schedule: Q07DX002 (ip), vehicle: Klucel (hydroxypropylcellulose) (HPC)) was 82 % of control, the T/C [3] was 69 % of control and the T/C [4] was 111 % of control. The T/C [5] was 68 % of control and 93 % of control and the T/C [6] was 49 % of control.

For `CN(C)CCCOC(=O)Cc1cccc2c(=O)cc(-c3ccccc3)oc12`, the T/C [5] was 107 % of control and the T/C [6] was 81 % of control.

With `C/C=C/c1cc2c(c(=O)o1)C(=O)[C@@H](O)[C@H](C)O2` the T/C [1] was 73 % of control and 95 % of control, the T/C [2] was 61 % of control and 80 % of control and the T/C [7] was 72 % of control and 76 % of control. The T/C [8] was 71 % of control and 86 % of control.

For `C=C(NC(=O)C(=C)NC(=O)c1csc(C2=NC3c4csc(n4)C4NC(=O)c5csc(n5)C(C(C)(O)C(C)O)NC(=O)C5CSC(=N5)/C(=C/C)NC(=O)C(C(C)O)NC(=O)c5csc(n5)C3(CC2)NC(=O)C(C)NC(=O)C(=C)NC(=O)C(C)NC(=O)C(C(C)CC)NC2C=Cc3c(C(C)O)cc(nc3C2O)C(=O)OC4C)n1)C(N)=O` (stereo not drawn), the T/C [3] was 70 % of control, the T/C [4] was 106 % of control and the T/C [5] was 106 % of control. For the same molecule, the T/C [6] was 110 % of control, the T/C [9] was 119 % of control and the T/C (dose: 400.0 mg/kg/injection, schedule: Q07DX003 (ip), vehicle: Klucel (hydroxypropylcellulose) (HPC)) was 119 % of control.

`C(C#CCN1CCOCC1)#CCN1CCOCC1` was tested, and the T/C [10] was 80 % of control, the T/C [2] was 166 % of control and the T/C [4] was 60 % of control. For the same molecule, the T/C [7] was 213 % of control, the T/C [5] was 65 % of control and the T/C [11] was 177 % of control. For the same molecule, the T/C [6] was 49 % of control, the T/C [8] was 296 % of control and the T/C [9] was 94 % of control. For the same molecule, the T/C (dose: 400.0 mg/kg/injection, schedule: Q07DX002 (ip), vehicle: saline with Tween-80) was 285 % of control, the T/C (dose: 800.0 mg/kg/injection, schedule: Q07DX002 (ip), vehicle: Klucel (hydroxypropylcellulose) (HPC)) was 60 % of control and the T/C (dose: 800.0 mg/kg/injection, schedule: Q07DX002 (ip), vehicle: saline with Tween-80) was 262 % of control.

`CCOC(=O)Nc1cc2c(c(N)n1)N=C(CN(C)c1ccccc1)CN2` was tested, and the T/C [10] was 88 % of control and the T/C [4] was 63 % of control and 68 % of control.

With `C/C=C(\C)c1cc(=O)c2c(C)cc3c(c2o1)C(=O)c1c(O)c(C2CC(C)(N(C)C)C(OC(C)=O)C(C)O2)cc(C2CC(N(C)C)C(O)C(C)O2)c1C3=O` (stereo not drawn) the T/C (dose: 0.31 mg/kg/injection, schedule: Q07DX002 (ip), vehicle: saline) was 78 % of control, the T/C (dose: 0.31 mg/kg/injection, schedule: Q07DX002 (ip), vehicle: suspension in saline) was 84 % of control and the T/C (dose: 0.62 mg/kg/injection, schedule: Q07DX002 (ip), vehicle: saline) was 75 % of control and 92 % of control. For the same molecule, the T/C (dose: 0.62 mg/kg/injection, schedule: Q07DX002 (ip), vehicle: suspension in saline) was 97 % of control, the T/C (dose: 1.25 mg/kg/injection, schedule: Q07DX002 (ip), vehicle: saline) was 97 % of control and the T/C (dose: 1.25 mg/kg/injection, schedule: Q07DX002 (ip), vehicle: suspension in saline) was 81 % of control. For the same molecule, the T/C (dose: 2.5 mg/kg/injection, schedule: Q07DX002 (ip), vehicle: saline) was 116 % of control and 105 % of control, the T/C (dose: 2.5 mg/kg/injection, schedule: Q07DX002 (ip), vehicle: suspension in saline) was 90 % of control and the T/C (dose: 5.0 mg/kg/injection, schedule: Q07DX002 (ip), vehicle: saline) was 86 % of control. The T/C (dose: 5.0 mg/kg/injection, schedule: Q07DX002 (ip), vehicle: suspension in saline) was 97 % of control, the T/C (dose: 10.0 mg/kg/injection, schedule: Q07DX002 (ip), vehicle: saline) was 97 % of control and the T/C (dose: 10.0 mg/kg/injection, schedule: Q07DX002 (ip), vehicle: suspension in saline) was 120 % of control.

For `Nc1nc2c(C(=O)N3CCCC3)nnn2c2ccccc12`, the T/C [1] was 98 % of control, the T/C [2] was 105 % of control and the T/C [7] was 100 % of control. The T/C [11] was 116 % of control.

With `Nc1nc(=S)c2[nH]cnc2[nH]1` the T/C (dose: 1.56 mg/kg/injection, schedule: Q07DX002 (ip), vehicle: alkali diluted with saline) was 105 % of control, the T/C (dose: 2.0 mg/kg/injection, schedule: Q07DX002 (ip), vehicle: alkali diluted with saline) was 63 % of control and the T/C (dose: 2.0 mg/kg/injection, schedule: Q07DX003 (ip), vehicle: alkali diluted with saline) was 37 % of control and 46 % of control (2×). For the same molecule, the T/C (dose: 2.0 mg/kg/injection, schedule: Q07DX003 (ip), vehicle: saline) was 52 % of control and 61 % of control, the T/C (dose: 3.13 mg/kg/injection, schedule: Q07DX002 (ip), vehicle: alkali diluted with saline) was 32 % of control and the T/C (dose: 4.0 mg/kg/injection, schedule: Q07DX002 (ip), vehicle: alkali diluted with saline) was 44 % of control. The T/C (dose: 4.0 mg/kg/injection, schedule: Q07DX002 (ip), vehicle: saline) was 54 % of control and 78 % of control, the T/C (dose: 4.0 mg/kg/injection, schedule: Q07DX003 (ip), vehicle: saline) was 27 % of control and 42 % of control and the T/C (dose: 6.25 mg/kg/injection, schedule: Q07DX002 (ip), vehicle: alkali diluted with saline) was 29 % of control. For the same molecule, the T/C (dose: 8.0 mg/kg/injection, schedule: Q07DX002 (ip), vehicle: alkali diluted with saline) was 21 % of control, the T/C (dose: 8.0 mg/kg/injection, schedule: Q07DX002 (ip), vehicle: saline) was 26 % of control and 31 % of control and the T/C (dose: 8.0 mg/kg/injection, schedule: Q07DX003 (ip), vehicle: alkali diluted with saline) was 8 % of control and 11 % of control and 18 % of control. For the same molecule, the T/C (dose: 8.0 mg/kg/injection, schedule: Q07DX003 (ip), vehicle: saline) was 13 % of control and 37 % of control, the T/C (dose: 12.5 mg/kg/injection, schedule: Q07DX002 (ip), vehicle: alkali diluted with saline) was 9 % of control and the T/C (dose: 16.0 mg/kg/injection, schedule: Q07DX002 (ip), vehicle: alkali diluted with saline) was 20 % of control. The T/C (dose: 16.0 mg/kg/injection, schedule: Q07DX002 (ip), vehicle: saline) was 17 % of control and 24 % of control, the T/C (dose: 16.0 mg/kg/injection, schedule: Q07DX003 (ip), vehicle: alkali diluted with saline) was 2 % of control and 8 % of control and the T/C (dose: 16.0 mg/kg/injection, schedule: Q07DX003 (ip), vehicle: saline) was 4 % of control and 15 % of control. For the same molecule, the T/C (dose: 25.0 mg/kg/injection, schedule: Q07DX002 (ip), vehicle: alkali diluted with saline) was 18 % of control, the T/C (dose: 32.0 mg/kg/injection, schedule: Q07DX002 (ip), vehicle: alkali diluted with saline) was 14 % of control and the T/C (dose: 32.0 mg/kg/injection, schedule: Q07DX003 (ip), vehicle: alkali diluted with saline) was 2 % of control. The T/C (dose: 32.0 mg/kg/injection, schedule: Q07DX003 (ip), vehicle: saline) was 9 % of control and the T/C (dose: 50.0 mg/kg/injection, schedule: Q07DX002 (ip), vehicle: alkali diluted with saline) was 16 % of control.

For `C1CNCOC1`, the T/C [12] was 108 % of control and the T/C (dose: 100.0 mg/kg/injection, schedule: Q07DX002 (ip), vehicle: saline) was 115 % of control.

`O=CC(O)C(O)C(O)C(O)C(=O)O.[NH-]C1CCCCC1[NH-].[Pt+2]` (stereo not drawn) was tested, and the T/C (dose: 3.12 mg/kg/injection, schedule: Q07DX002 (ip), vehicle: saline) was 56 % of control, the T/C (dose: 6.25 mg/kg/injection, schedule: Q07DX002 (ip), vehicle: saline) was 23 % of control and 24 % of control and 34 % of control and the T/C (dose: 12.5 mg/kg/injection, schedule: Q07DX002 (ip), vehicle: saline) was 10 % of control and 22 % of control and 34 % of control. For the same molecule, the T/C [12] was 12 % of control and 15 % of control.

In the case of `O=C(CC(=O)C(F)(F)F)c1csc2ccccc12`, the T/C [3] is reported as 110 % of control and 90 % of control, the T/C [4] is reported as 76 % of control and the T/C [6] is reported as 62 % of control.

With `CC(C)(C)c1ccc(CN2CCN(C(c3ccccc3)c3ccc(Cl)cc3)CC2)cc1` (stereo not drawn) the T/C (dose: 8.0 mg/kg/injection, schedule: Q07DX002 (ip), vehicle: Klucel (hydroxypropylcellulose) (HPC)) was 92 % of control, the T/C (dose: 16.0 mg/kg/injection, schedule: Q07DX002 (ip), vehicle: Klucel (hydroxypropylcellulose) (HPC)) was 34 % of control and the T/C (dose: 32.0 mg/kg/injection, schedule: Q07DX002 (ip), vehicle: Klucel (hydroxypropylcellulose) (HPC)) was 82 % of control. The T/C (dose: 64.0 mg/kg/injection, schedule: Q07DX002 (ip), vehicle: Klucel (hydroxypropylcellulose) (HPC)) was 89 % of control and the T/C (dose: 256.0 mg/kg/injection, schedule: Q07DX002 (ip), vehicle: Klucel (hydroxypropylcellulose) (HPC)) was 87 % of control.
